SMILES strings stand for the structures.

3 molecules from the kinase profiling compilation of Christmann-Franck et al. (2016) can be followed below.

What all share (test): KINOMEscan competition binding
Holding throughout (conditions): compound 10.0 µM

Assay [1] deals with ABL1 (human), P00519 [T315I].
The next assay has as its target ACVR1 (human) (UniProt Q04771).
For another assay, the target named is AURKA (human) (UniProt O14965).
For the next assay, the target named is AURKB (human) (UniProt Q96GD4).
Sequence of AURKB (human) (Q96GD4 whole entry, looked up): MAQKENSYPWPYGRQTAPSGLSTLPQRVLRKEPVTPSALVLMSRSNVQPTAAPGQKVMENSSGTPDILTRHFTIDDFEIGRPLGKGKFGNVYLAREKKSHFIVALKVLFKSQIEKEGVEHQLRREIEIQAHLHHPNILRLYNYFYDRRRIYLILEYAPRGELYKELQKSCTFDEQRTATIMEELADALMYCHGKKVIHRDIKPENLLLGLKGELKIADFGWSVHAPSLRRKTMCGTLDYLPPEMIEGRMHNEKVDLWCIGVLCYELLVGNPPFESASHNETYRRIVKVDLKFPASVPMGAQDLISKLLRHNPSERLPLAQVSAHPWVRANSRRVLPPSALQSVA
Another assay deals with AURKC (human) (UniProt Q9UQB9).
The next assay addresses BMPR1B (human) (UniProt O00238).
The next assay deals with CAMKK2 (human) (UniProt Q96RR4).
A further assay concerns the target CLK2 (human) (UniProt P49760).
In the next assay the target is CSF1R (human) (UniProt P07333).
A further assay deals with DCLK1 (human) (UniProt O15075).
Sequence of DCLK1 (human) (O15075 whole entry, looked up): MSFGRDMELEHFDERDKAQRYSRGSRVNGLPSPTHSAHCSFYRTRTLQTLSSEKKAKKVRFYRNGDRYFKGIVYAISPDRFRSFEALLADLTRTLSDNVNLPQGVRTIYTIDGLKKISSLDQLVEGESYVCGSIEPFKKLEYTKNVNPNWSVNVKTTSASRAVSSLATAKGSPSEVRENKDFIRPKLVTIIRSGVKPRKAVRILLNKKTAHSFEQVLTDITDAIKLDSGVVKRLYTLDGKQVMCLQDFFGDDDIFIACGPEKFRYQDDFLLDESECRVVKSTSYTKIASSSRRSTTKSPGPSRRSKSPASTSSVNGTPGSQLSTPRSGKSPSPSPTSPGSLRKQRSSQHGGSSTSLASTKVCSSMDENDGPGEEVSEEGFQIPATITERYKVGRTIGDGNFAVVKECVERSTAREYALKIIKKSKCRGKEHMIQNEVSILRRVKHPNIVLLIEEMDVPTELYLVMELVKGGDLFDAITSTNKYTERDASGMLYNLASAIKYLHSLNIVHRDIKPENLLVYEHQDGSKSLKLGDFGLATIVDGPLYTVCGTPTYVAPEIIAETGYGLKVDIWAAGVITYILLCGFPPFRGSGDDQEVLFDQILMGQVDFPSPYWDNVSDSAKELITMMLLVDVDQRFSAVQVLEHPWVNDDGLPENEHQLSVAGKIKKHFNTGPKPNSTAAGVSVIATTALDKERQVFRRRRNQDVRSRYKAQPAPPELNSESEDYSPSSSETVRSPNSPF
For the next assay, the target named is DCLK2 (human) (UniProt Q8N568).
Sequence of DCLK2 (human) (Q8N568 whole entry, looked up): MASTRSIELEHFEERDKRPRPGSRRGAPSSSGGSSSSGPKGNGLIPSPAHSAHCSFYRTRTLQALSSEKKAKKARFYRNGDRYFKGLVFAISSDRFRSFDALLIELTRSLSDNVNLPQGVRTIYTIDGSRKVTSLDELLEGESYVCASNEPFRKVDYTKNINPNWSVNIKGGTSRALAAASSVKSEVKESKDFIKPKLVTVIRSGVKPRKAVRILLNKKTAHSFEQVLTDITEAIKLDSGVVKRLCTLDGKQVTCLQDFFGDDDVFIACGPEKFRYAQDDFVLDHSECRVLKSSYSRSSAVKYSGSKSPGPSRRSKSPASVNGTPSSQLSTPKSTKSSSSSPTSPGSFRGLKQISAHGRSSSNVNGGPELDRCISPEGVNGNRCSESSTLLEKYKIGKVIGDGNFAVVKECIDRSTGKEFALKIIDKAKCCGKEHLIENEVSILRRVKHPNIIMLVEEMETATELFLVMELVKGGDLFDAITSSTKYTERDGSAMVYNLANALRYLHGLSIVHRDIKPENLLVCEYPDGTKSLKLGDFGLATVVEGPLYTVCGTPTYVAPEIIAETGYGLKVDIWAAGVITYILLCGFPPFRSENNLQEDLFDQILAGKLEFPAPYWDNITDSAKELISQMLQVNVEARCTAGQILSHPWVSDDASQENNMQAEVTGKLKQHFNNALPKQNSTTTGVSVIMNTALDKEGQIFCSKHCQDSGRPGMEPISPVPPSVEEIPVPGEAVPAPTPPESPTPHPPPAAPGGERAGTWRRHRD
The target of another assay is FGFR4 (human) (UniProt P22455).
A further assay addresses FLT3 (human) (UniProt P36888).
In assay [2] the test system is FLT3 (human), P36888 [ITD].
Assay [3] relates to FLT3 (human), P36888 [K663Q].
The next assay deals with GAK (human) (UniProt O14976).
The target in another assay is KIT (human) (UniProt P10721).
In assay [4] the test system is KIT (human), P10721 [V559D/V654A].
Assay [5] deals with KIT (human), P10721 [V559D].
The target in a further assay is MAP3K3 (human) (UniProt Q99759).
For a further assay, the target named is MAPK7 (human) (UniProt Q13164).
Sequence of MAPK7 (human) (Q13164 whole entry, looked up): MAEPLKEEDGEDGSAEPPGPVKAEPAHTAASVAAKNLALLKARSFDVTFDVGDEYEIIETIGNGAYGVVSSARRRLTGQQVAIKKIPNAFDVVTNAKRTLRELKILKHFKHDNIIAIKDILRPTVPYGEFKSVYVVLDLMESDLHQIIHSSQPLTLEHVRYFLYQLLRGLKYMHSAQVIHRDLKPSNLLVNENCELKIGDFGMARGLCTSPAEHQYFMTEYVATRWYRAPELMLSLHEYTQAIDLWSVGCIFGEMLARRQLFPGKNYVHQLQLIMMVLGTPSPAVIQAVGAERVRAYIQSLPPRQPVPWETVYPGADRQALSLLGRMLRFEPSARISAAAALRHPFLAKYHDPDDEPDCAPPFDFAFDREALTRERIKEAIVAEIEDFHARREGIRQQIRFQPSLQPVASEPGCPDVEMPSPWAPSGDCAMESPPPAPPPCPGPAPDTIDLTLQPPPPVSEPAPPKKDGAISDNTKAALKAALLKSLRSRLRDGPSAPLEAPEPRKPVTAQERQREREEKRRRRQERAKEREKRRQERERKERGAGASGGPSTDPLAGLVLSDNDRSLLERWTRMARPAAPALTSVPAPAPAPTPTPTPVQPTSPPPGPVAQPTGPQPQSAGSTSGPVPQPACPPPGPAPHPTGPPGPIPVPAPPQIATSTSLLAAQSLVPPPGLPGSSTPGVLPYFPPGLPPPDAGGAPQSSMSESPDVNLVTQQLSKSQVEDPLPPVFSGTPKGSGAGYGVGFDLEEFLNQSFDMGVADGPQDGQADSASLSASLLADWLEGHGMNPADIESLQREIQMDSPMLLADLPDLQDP
Another assay addresses MKNK2 (human) (UniProt Q9HBH9).
The target in another assay is NUAK1 (human) (UniProt O60285).
The target in a further assay is NUAK2 (human) (UniProt Q9H093).
The target in a further assay is PDGFRA (human) (UniProt P16234).
The target of the next assay is PDGFRB (human) (UniProt P09619).
In the next assay the target is PIK3CA (human) (UniProt P42336).
In the next assay the target is PIK3CD (human) (UniProt O00329).
Another assay concerns the target PIK3CG (human) (UniProt P48736).
The next assay has as its target PIP5K1A (human) (UniProt Q99755).
For a further assay, the target named is PLK1 (human) (UniProt P53350).
Sequence of PLK1 (human) (P53350 whole entry, looked up): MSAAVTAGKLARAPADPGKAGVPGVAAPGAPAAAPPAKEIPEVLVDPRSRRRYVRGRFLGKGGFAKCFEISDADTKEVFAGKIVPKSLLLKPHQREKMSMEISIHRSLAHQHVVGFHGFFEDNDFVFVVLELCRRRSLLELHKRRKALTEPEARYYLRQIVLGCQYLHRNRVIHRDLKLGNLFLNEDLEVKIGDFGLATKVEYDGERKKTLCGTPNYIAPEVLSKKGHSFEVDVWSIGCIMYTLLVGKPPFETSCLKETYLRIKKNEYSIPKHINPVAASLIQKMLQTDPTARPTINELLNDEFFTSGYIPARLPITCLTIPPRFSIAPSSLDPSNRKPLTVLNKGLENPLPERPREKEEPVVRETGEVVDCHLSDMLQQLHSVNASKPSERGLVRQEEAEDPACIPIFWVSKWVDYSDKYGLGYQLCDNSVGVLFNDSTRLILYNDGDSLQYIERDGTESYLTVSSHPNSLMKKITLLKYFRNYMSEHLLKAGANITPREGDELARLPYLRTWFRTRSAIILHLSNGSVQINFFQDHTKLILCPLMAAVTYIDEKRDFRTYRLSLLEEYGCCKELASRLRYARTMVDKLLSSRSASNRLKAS
For the next assay, the target named is PLK4 (human) (UniProt O00444).
The next assay has as its target PRKAA1 (human) (UniProt Q13131).
The target in another assay is PRKD1 (human) (UniProt Q15139).
A further assay addresses PRKD3 (human) (UniProt O94806).
For assay [6], the system named is RET (human), P07949 [V804L].
Sequence of RET (human), P07949 [V804L] (P07949 whole entry V804L, looked up): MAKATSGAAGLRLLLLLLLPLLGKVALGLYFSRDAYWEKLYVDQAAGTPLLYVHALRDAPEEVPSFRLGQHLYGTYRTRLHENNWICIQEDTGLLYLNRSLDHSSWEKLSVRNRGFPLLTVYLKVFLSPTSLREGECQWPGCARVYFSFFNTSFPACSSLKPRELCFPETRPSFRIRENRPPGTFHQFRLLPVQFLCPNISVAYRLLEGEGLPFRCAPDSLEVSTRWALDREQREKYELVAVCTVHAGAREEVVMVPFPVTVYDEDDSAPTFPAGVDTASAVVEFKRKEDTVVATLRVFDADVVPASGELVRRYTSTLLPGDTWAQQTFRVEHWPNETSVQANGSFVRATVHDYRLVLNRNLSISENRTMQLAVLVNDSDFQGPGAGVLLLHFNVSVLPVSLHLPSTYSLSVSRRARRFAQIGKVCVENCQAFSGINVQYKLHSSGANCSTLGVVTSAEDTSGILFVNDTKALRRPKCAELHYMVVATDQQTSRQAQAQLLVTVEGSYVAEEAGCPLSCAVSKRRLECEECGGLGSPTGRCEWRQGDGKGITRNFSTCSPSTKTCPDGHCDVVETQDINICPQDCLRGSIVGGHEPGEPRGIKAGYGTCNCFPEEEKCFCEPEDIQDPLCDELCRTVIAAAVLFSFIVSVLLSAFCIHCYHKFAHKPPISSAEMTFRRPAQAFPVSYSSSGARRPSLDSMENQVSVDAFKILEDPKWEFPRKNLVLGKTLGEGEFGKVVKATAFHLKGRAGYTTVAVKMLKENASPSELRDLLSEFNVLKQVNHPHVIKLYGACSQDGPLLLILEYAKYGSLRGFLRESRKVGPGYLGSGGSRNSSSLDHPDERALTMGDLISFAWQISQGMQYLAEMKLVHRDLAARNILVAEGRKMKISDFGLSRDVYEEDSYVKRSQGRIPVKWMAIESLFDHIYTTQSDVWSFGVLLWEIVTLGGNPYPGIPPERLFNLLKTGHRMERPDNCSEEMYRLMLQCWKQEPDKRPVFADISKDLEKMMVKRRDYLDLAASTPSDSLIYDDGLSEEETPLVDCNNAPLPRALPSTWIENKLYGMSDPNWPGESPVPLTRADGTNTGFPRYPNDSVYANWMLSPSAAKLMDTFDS
For a further assay, the target named is ROS1 (human) (UniProt P08922).
The next assay deals with RPS6KA1 KD2 (human) (UniProt Q15418).
The next assay has as its target RPS6KA6 KD2 (human) (UniProt Q9UK32).
The target of a further assay is STK16 (human) (UniProt O75716).
The target in a further assay is TAOK1 (human) (UniProt Q7L7X3).
Another assay deals with TAOK3 (human) (UniProt Q9H2K8).
The next assay concerns the target TNK1 (human) (UniProt Q13470).
The next assay has as its target TNK2 (human) (UniProt Q07912).
Assay [7] deals with TYK2 JH1 catalytic (human) (UniProt P29597).
Another assay has as its target MYLK (human) (UniProt Q15746).
Another assay deals with NLK (human) (UniProt Q9UBE8).
Another assay deals with PKN1 (human) (UniProt Q16512).
The target in a further assay is PLK3 (human) (UniProt Q9H4B4).
The target of the next assay is PRKCQ (human) (UniProt Q04759).
In another assay the target is TTK (human) (UniProt P33981).
In the next assay the target is BRSK2 (human) (UniProt Q8IWQ3).
Another assay has as its target FLT4 (human) (UniProt P35916).
Another assay has as its target MARK4 (human) (UniProt Q96L34).
A further assay deals with MERTK (human) (UniProt Q12866).
A further assay deals with PRKCD (human) (UniProt Q05655).
For assay [8], the system named is RET (human), P07949 [M918T].
Sequence of RET (human), P07949 [M918T] (P07949 whole entry M918T, looked up): as the sequence (P07949 whole entry V804L, looked up) above, with L804V, M918T counted along it
Another assay concerns the target SRPK1 (human) (UniProt Q96SB4).
The next assay deals with STK33 (human) (UniProt Q9BYT3).

Sequence of PIP5K1A (human) (Q99755 whole entry, looked up): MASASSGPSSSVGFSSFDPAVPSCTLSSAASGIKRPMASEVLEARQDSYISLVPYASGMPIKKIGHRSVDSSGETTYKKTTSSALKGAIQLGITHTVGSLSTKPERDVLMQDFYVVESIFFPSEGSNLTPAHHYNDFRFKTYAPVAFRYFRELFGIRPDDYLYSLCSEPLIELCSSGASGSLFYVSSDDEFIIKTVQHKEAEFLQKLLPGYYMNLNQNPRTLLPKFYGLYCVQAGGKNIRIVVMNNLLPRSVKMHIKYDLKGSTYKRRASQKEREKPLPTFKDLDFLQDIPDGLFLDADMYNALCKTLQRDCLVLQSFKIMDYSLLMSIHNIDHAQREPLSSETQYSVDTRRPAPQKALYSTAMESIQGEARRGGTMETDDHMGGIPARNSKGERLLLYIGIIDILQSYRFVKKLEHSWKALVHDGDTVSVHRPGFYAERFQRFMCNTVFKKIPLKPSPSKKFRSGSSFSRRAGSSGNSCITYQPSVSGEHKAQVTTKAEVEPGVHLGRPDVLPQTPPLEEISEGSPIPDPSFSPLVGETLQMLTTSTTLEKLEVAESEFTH

Take `CN1C(=O)c2ccccc2N(C)c2nc(Nc3ccc(N4CCC(O)CC4)cn3)ncc21`: the kinase still bound, per cent of control in assay [1] turned out to be 19%; at ACVR1 (human) it was 29%; at AURKA (human), 8.2%; at AURKB (human) it was 25%; at AURKC (human), 3.7%; on BMPR1B (human), 19%. Also, the kinase still bound, per cent of control at CAMKK2 (human) was 31%; at CLK2 (human), 32%; at CSF1R (human), 14%; at DCLK1 (human) it was 0.3%; at DCLK2 (human) it was 0.5%; at FGFR4 (human), 25%. Also, the kinase still bound, per cent of control on FLT3 (human) stood at 8.1%; in [2] it was 33%; in [3], 12%; at GAK (human), 33%; at KIT (human), 3.1%; in assay [4], 26%. The kinase still bound, per cent of control in assay [5] is 1.8%; at MAP3K3 (human), 2.2%; at MAPK7 (human), 0%; at MKNK2 (human), 1.6%; at NUAK1 (human) it was 30%; at NUAK2 (human), 22%. For the same molecule, the kinase still bound, per cent of control was 8% on PDGFRA (human); 2.6% at PDGFRB (human); 33% at PIK3CA (human); 33% on PIK3CD (human); 2.2% on PIK3CG (human); 26% on PIP5K1A (human). Moreover, the kinase still bound, per cent of control at PLK1 (human) stood at 24%; on PLK4 (human) it was 7.2%; on PRKAA1 (human), 23%; at PRKD1 (human) it was 21%; on PRKD3 (human) it was 20%; in assay [6] it was 34%. For the same molecule, the kinase still bound, per cent of control on ROS1 (human) was determined as 28%; on RPS6KA1 KD2 (human), 34%; at RPS6KA6 KD2 (human), 30%; at STK16 (human), 31%; on TAOK1 (human) it was 1%; at TAOK3 (human), 0.4%. For the same molecule, the kinase still bound, per cent of control on TNK1 (human) was 0.6%; at TNK2 (human) it was 31%; in assay [7], 18%.
Turning to `COc1cc(C(N)=O)ccc1Nc1ncc2c(n1)N(C1CCCC1)[C@@H]1CCC[C@@H]1C(=O)N2C`, the kinase still bound, per cent of control at DCLK1 (human) was determined as 29%; at DCLK2 (human), 24%; at GAK (human) it was 33%; on MAPK7 (human), 0.15%; on MYLK (human), 25%; at NLK (human) it was 25%. For the same molecule, the kinase still bound, per cent of control was 27% at PKN1 (human); 16% at PLK1 (human); 1.7% on PLK3 (human); 31% at PRKCQ (human); 13% at TTK (human).
`COc1cc(C(=O)NC2CCN(C)CC2)ccc1Nc1ncc2c(n1)N(C1CCCC1)CCC(=O)N2C(C)C`: the kinase still bound, per cent of control at BRSK2 (human) came to 0%; on FLT4 (human), 0%; on MARK4 (human) it was 0%; on MERTK (human), 34%; on PIP5K1A (human) it was 6.4%; at PLK1 (human), 17%. In addition, the kinase still bound, per cent of control on PRKCD (human) is 0%; in assay [8] it was 0%; in assay [6], 0%; on SRPK1 (human), 0%; on STK33 (human), 32%.
